In US20160326142A1, “PYRAZOLE CARBOXAMIDE COMPOUNDS, COMPOSITIONS AND METHODS OF USE” (Genentech, Inc., priority 2012, published 2016):

Target: T1, ITK (Homo sapiens, UniProt Q08881)
T1 construct: purchased Invitrogen PV3875
T1 sequence (Q08881 1-620): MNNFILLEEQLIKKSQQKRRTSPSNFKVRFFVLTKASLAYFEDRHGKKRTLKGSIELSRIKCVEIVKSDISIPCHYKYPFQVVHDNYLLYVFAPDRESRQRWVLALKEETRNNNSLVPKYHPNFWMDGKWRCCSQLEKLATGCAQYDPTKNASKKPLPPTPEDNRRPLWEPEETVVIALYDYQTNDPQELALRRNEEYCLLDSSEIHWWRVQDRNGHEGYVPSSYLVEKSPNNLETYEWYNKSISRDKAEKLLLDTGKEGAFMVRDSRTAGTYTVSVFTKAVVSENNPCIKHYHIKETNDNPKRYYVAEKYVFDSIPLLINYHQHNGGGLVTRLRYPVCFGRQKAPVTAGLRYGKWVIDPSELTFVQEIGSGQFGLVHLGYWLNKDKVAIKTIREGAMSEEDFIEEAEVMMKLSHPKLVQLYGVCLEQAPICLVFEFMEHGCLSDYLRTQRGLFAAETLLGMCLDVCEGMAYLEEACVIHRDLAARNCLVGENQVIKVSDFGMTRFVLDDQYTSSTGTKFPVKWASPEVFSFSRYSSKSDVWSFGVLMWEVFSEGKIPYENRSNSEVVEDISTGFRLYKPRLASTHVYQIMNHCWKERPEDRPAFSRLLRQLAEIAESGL
Assay: ITK enzyme assay (Caliper or LCMS peptide phosphorylation)
Type: biochemical
Conditions: purified ITK (Invitrogen PV3875), 20 μM ATP, Ki by Morrison's quadratic equation
Outline: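 Purified human ITK peptide phosphorylation, quenched with EDTA (50 mM final) for Caliper LabChip separation or TCA (5% v/v final) for UPLC-MS/MS MRM quantification. Ki derived via Morrison tight-binding equation, corrected for competitive inhibition using ATP concentration relative to Km,app.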

| SMILES | Ki [nM] |
| --- | --- |
| C#CC1(C)CCc2c(C(=O)Nc3cnn(Cc4ccccc4)c3)n[nH]c2C1 (single isomer, unassigned) [Example 130b, N-(1-benzyl-1H-pyrazol-4-yl)-6-ethynyl-6-methyl-4,5,6,7-tetrahydro-1H-indazole-3-carboxamide] | 2 |
| CN1CCN(CC(c2ccccc2)n2cc(NC(=O)c3n[nH]c4c3CCC(C)(C)C4)cn2)C1=O (single isomer, unassigned) [Example 131a, 6,6-dimethyl-N-(1-(2-(3-methyl-2-oxoimidazolidin-1-yl)-1-phenylethyl)-1H-pyrazol-4-yl)-4,5,6,7-tetrahydro-1H-indazole-3-carboxamide] | 1 |
| CN1CCN(CC(c2ccccc2)n2cc(NC(=O)c3n[nH]c4c3CCC(C)(C)C4)cn2)C1=O (single isomer, unassigned) [Example 131b, 6,6-dimethyl-N-(1-(2-(3-methyl-2-oxoimidazolidin-1-yl)-1-phenylethyl)-1H-pyrazol-4-yl)-4,5,6,7-tetrahydro-1H-indazole-3-carboxamide] | 11 |
| CC1(C)CCc2c(C(=O)Nc3cnn(C4COCC4c4ccccc4)c3)n[nH]c2C1 (single isomer, unassigned) [Example 132a, 6,6-dimethyl-N-(1-(4-phenyltetrahydrofuran-3-yl)-1H-pyrazol-4-yl)-4,5,6,7-tetrahydro-1H-indazole-3-carboxamide] | 77 |
| CC1(C)CCc2c(C(=O)Nc3cnn(C4COCC4c4ccccc4)c3)n[nH]c2C1 (single isomer, unassigned) [Example 132b, 6,6-dimethyl-N-(1-(4-phenyltetrahydrofuran-3-yl)-1H-pyrazol-4-yl)-4,5,6,7-tetrahydro-1H-indazole-3-carboxamide] | 10 |
| CC1(C)CCc2c(C(=O)Nc3cnn(C(c4ccnc(N)c4)C4CCOCC4)c3)n[nH]c2C1 (single isomer, unassigned) [Example 133a, N-(1-((2-aminopyridin-4-yl)(tetrahydro-2H-pyran-4-yl)methyl)-1H-pyrazol-4-yl)-6,6-dimethyl-4,5,6,7-tetrahydro-1H-indazole-3-carboxamide] | 0.4 |
| CC1(C)CCc2c(C(=O)Nc3cnn(C(c4ccnc(N)c4)C4CCOCC4)c3)n[nH]c2C1 (single isomer, unassigned) [Example 133b, N-(1-((2-aminopyridin-4-yl)(tetrahydro-2H-pyran-4-yl)methyl)-1H-pyrazol-4-yl)-6,6-dimethyl-4,5,6,7-tetrahydro-1H-indazole-3-carboxamide] | 2 |
| CC1(C)CCc2c(C(=O)Nc3cnn([C@@H]4COC[C@H]4c4ccccc4)c3)n[nH]c2C1 (single isomer, unassigned) [Example 135a, 6,6-dimethyl-N-(1-(4-phenyltetrahydrofuran-3-yl)-1H-pyrazol-4-yl)-4,5,6,7-tetrahydro-1H-indazole-3-carboxamide] | 130 |
| CC1(C)CCc2c(C(=O)Nc3cnn([C@@H]4COC[C@H]4c4ccccc4)c3)n[nH]c2C1 (single isomer, unassigned) [Example 135b, 6,6-dimethyl-N-(1-(4-phenyltetrahydrofuran-3-yl)-1H-pyrazol-4-yl)-4,5,6,7-tetrahydro-1H-indazole-3-carboxamide] | 14 |
| CC1CC(C(c2ccccc2)n2cc(NC(=O)c3n[nH]c4c3CCC(C)(C)C4)cn2)CCS1(=O)=O (single isomer, unassigned) [Example 139a, 6,6-dimethyl-N-(1-((2-methyl-1,1-dioxidotetrahydro-2H-thiopyran-4-yl)(phenyl)methyl)-1H-pyrazol-4-yl)-4,5,6,7-tetrahydro-1H-indazole-3-carboxamide] | 1 |
| CC1CC(C(c2ccccc2)n2cc(NC(=O)c3n[nH]c4c3CCC(C)(C)C4)cn2)CCS1(=O)=O (single isomer, unassigned) [Example 139b, 6,6-dimethyl-N-(1-((2-methyl-1,1-dioxidotetrahydro-2H-thiopyran-4-yl)(phenyl)methyl)-1H-pyrazol-4-yl)-4,5,6,7-tetrahydro-1H-indazole-3-carboxamide] | 0.7 |
| CC1CC(C(c2ccccc2)n2cc(NC(=O)c3n[nH]c4c3CCC(C)(C)C4)cn2)CCS1(=O)=O (single isomer, unassigned) [Example 139c, 6,6-dimethyl-N-(1-((2-methyl-1,1-dioxidotetrahydro-2H-thiopyran-4-yl)(phenyl)methyl)-1H-pyrazol-4-yl)-4,5,6,7-tetrahydro-1H-indazole-3-carboxamide] | 12 |
| CC1CC(C(c2ccccc2)n2cc(NC(=O)c3n[nH]c4c3CCC(C)(C)C4)cn2)CCS1(=O)=O (single isomer, unassigned) [Example 139d, 6,6-dimethyl-N-(1-((2-methyl-1,1-dioxidotetrahydro-2H-thiopyran-4-yl)(phenyl)methyl)-1H-pyrazol-4-yl)-4,5,6,7-tetrahydro-1H-indazole-3-carboxamide] | 12 |
| CC1CC(C(c2ccccc2)n2cc(NC(=O)c3n[nH]c4c3CCC(C)(C)C4)cn2)CCS1(=O)=O (single isomer, unassigned) [Example 139e, 6,6-dimethyl-N-(1-((2-methyl-1,1-dioxidotetrahydro-2H-thiopyran-4-yl)(phenyl)methyl)-1H-pyrazol-4-yl)-4,5,6,7-tetrahydro-1H-indazole-3-carboxamide] | 1 |
| CC1CC(C(c2ccccc2)n2cc(NC(=O)c3n[nH]c4c3CCC(C)(C)C4)cn2)CCS1(=O)=O (single isomer, unassigned) [Example 139f, 6,6-dimethyl-N-(1-((2-methyl-1,1-dioxidotetrahydro-2H-thiopyran-4-yl)(phenyl)methyl)-1H-pyrazol-4-yl)-4,5,6,7-tetrahydro-1H-indazole-3-carboxamide] | 0.6 |
| CC1CC(C(c2ccccc2)n2cc(NC(=O)c3n[nH]c4c3CCC(C)(C)C4)cn2)CCS1(=O)=O (single isomer, unassigned) [Example 139g, 6,6-dimethyl-N-(1-((2-methyl-1,1-dioxidotetrahydro-2H-thiopyran-4-yl)(phenyl)methyl)-1H-pyrazol-4-yl)-4,5,6,7-tetrahydro-1H-indazole-3-carboxamide] | 8 |
| CC1CC(C(c2ccccc2)n2cc(NC(=O)c3n[nH]c4c3CCC(C)(C)C4)cn2)CCS1(=O)=O (single isomer, unassigned) [Example 139h, 6,6-dimethyl-N-(1-((2-methyl-1,1-dioxidotetrahydro-2H-thiopyran-4-yl)(phenyl)methyl)-1H-pyrazol-4-yl)-4,5,6,7-tetrahydro-1H-indazole-3-carboxamide] | 12 |
| CC1(C)CCc2c(C(=O)Nc3cnn(C(c4ccccc4)C4CC[N+](C)([O-])CC4)c3)n[nH]c2C1 (single isomer, unassigned) [Example 140a, 4-((4-(6,6-dimethyl-4,5,6,7-tetrahydro-1H-indazole-3-carboxamido)-1H-pyrazol-1-yl)(phenyl)methyl)-1-methylpiperidine 1-oxide] | 0.4 |
| CC1(C)CCc2c(C(=O)Nc3cnn(C(c4ccccc4)C4CC[N+](C)([O-])CC4)c3)n[nH]c2C1 (single isomer, unassigned) [Example 140b, 4-((4-(6,6-dimethyl-4,5,6,7-tetrahydro-1H-indazole-3-carboxamido)-1H-pyrazol-1-yl)(phenyl)methyl)-1-methylpiperidine 1-oxide] | 14 |
| CC12Cc3[nH]nc(C(=O)Nc4cnn(C(c5ccccc5)C5CC[S+]([O-])CC5)c4)c3CC1C2(F)F (single isomer, unassigned) [Example 142a, 5,5-difluoro-5a-methyl-N-(1-((1-oxidotetrahydro-2H-thiopyran-4-yl)(phenyl)methyl)-1H-pyrazol-4-yl)-1,4,4a,5,5a,6-hexahydrocyclopropa[f]indazole-3-carboxamide] | < 0.1 |
| CC12Cc3[nH]nc(C(=O)Nc4cnn(C(c5ccccc5)C5CC[S+]([O-])CC5)c4)c3CC1C2(F)F (single isomer, unassigned) [Example 142b, 5,5-difluoro-5a-methyl-N-(1-((1-oxidotetrahydro-2H-thiopyran-4-yl)(phenyl)methyl)-1H-pyrazol-4-yl)-1,4,4a,5,5a,6-hexahydrocyclopropa[f]indazole-3-carboxamide] | < 0.1 |
| CC12Cc3[nH]nc(C(=O)Nc4cnn(C(c5ccccc5)C5CCCCS5(=O)=O)c4)c3CC1C2 (single isomer, unassigned) [Example 143a, N-(1-((1,1-dioxidotetrahydro-2H-thiopyran-2-yl)(phenyl)methyl)-1H-pyrazol-4-yl)-5a-methyl-1,4,4a,5,5a,6-hexahydrocyclopropa[f]indazole-3-carboxamide] | < 0.1 |
| CC12Cc3[nH]nc(C(=O)Nc4cnn(C(c5ccccc5)C5CCCCS5(=O)=O)c4)c3CC1C2 (single isomer, unassigned) [Example 143b, N-(1-((1,1-dioxidotetrahydro-2H-thiopyran-2-yl)(phenyl)methyl)-1H-pyrazol-4-yl)-5a-methyl-1,4,4a,5,5a,6-hexahydrocyclopropa[f]indazole-3-carboxamide] | 2 |
